Reference: US20190054090A1, “COMBINATION OF A BTK INHIBITOR AND A CHECKPOINT INHIBITOR FOR TREATING CANCERS” (Gilead Sciences, Inc., priority 2015, published 2019)

What was measured:
[1] = body weight of A20-bearing BALB/c mice; type: in vivo; conditions: first study, Compound A1 46 mg/kg/day in diet (0.037%), 4H2 i.p. 20 mg/kg day 0 then 10 mg/kg every 6 days, n=9
Procedure: (§1) A20-bearing BALB/c mice were subcutaneously injected (5×10^6 cells per animal). Day 6 after cell injection (day 0), mice having the tumor volume of about were 200 mm^3 were randomized into four groups (n=9 per group) for treatment with vehicle (CRF-1), Compound A1, 4H2, or Compound A1 and 4H2. Mice were fed diets containing of Compound A1. 4H2 was administered intraperitoneally at 20 mg/kg on day 0 followed by 10 mg/kg every 6 days; the average dose of Compound A1 was 46 mg/kg/day (CRF-1 at 0.037%) in the first and second studies or 15 mg/kg/day (CRF-1 at 0.012%) in the second study. During the studies, tumor volume (long axis of tumor×(short axis of tumor)^2×0.5), tumor growth inhibition rate (TGI, as compared to tumors of the vehicle control group), temporal changes in tumor volume, body weight, or food intake were determined. The studies were terminated when tumors reached a maximum of 3,000 mm^3.
In the second study, the effects of Compound A1 at 15 mg/kg/day (CRF-1 at 0.012%) and 46 mg/kg/day (CRF-1 at 0.037%) were evaluated. Similar protocols as described above were used. The study (n=12 per group) was terminated at day 17.

[2] = tested on: A20 cell line (ATCC), mouse B-cell lymphoma; test: in vivo anti-tumor activity in A20 syngeneic tumors; conditions: first study, Compound A1 46 mg/kg/day in diet (0.037%), 4H2 i.p. 20 mg/kg day 0 then 10 mg/kg every 6 days, n=9
Procedure: This example evaluated in vivo anti-tumor activity of a BTK inhibitor Compound A1 in combination with an anti-PD-1 antibody (4H2), (Kitayama Labes Co., Ltd) in syngeneic tumors.
A20 cell line (ATCC), mouse B-cell lymphoma, were maintained in lymphocyte growth medium (LGM): RPMI-1640 supplemented with 10% FBS, 1% penicillin-streptomycin. Fresh 1% (vol) Monothioglycerol was also added to the culture. The cell suspension of 2×10^6 to 4×10^6 cells per dish was cultured at 37° C., 5% CO2. The cells were suspended in PBS (5×10^7 cells/mL).
as §1, with “mm^3. […]” for “mm^3.”

[3] = tested on: L1210 cell line (JCRB), mouse lymphocytic leukemia; test: in vivo anti-tumor activity in L1210 syngeneic tumors; conditions: Compound A1 54 mg/kg/day in diet (0.037%), 4H2 i.p. 20 mg/kg day 0 then 10 mg/kg every 6 days, n=8
Procedure: (§2) This example evaluated in vivo anti-tumor activity of a BTK inhibitor (Compound A1) in combination with an anti-PD-1 antibody (4H2) in syngeneic tumors. Similar protocols as described above were used with L1210 cell line (JCRB), mouse lymphocytic leukemia.
(§3) L1210-bearing DBA-2 mice were subcutaneously injected (5×10^5 cells/animal). Mice were randomized into four groups (n=8 per group) for treatment with vehicle (CRF-1), Compound A1, 4H2 (10 mg/kg every 6 days), or Compound A1 and 4H2. Mice were fed diets containing of Compound A1. 4H2 was administered intraperitoneally at 20 mg/kg on day 0 followed by 10 mg/kg every 6 days. The average dose of Compound A1 was 54 mg/kg/day (CRF-1 at 0.037%).

[4] = body weight of L1210-bearing DBA-2 mice; type: in vivo; conditions: Compound A1 54 mg/kg/day in diet (0.037%), 4H2 i.p. 20 mg/kg day 0 then 10 mg/kg every 6 days, n=8
Procedure: as §2, §3

B-cell lymphoma A20 = conditions: previously reported, Sagiv-Barfi et al. PNAS 2015; cited from earlier work

CC#CC(=O)N1CC[C@@H](n2c(=O)n(-c3ccc(Oc4ccccc4)cc3)c3c(N)ncnc32)C1 [Compound A1, (R)-6-amino-9-(1-(but-2-ynoyl)pyrrolidin-3-yl)-7-(4-phenoxyphenyl)-7H-purin-8(9H)-one]
average body weight (±standard error) ([1]; day 0): 19 (±0.4) g | average body weight (±standard error) ([1]; day 2): 19 (±0.4) g | average body weight (±standard error) ([1]; day 6): 20 (±0.3) g | average body weight (±standard error) ([1]; day 9): 20 (±0.3) g | average body weight (±standard error) ([1]; day 12): 21 (±0.3) g | average body weight (±standard error) ([1]; day 15): 21 (±0.3) g | average body weight (±standard error) ([1]; day 19): 22 (±0.4) g | average tumor volume (±standard error) ([2]; day 0): 168 (±11) mm^3 | tumor growth inhibition rate (TGI, as compared to tumors of the vehicle control group) ([2]; day 0): 0.8% | average tumor volume (±standard error) ([2]; day 2): 248 (±18) mm^3 | tumor growth inhibition rate (TGI, as compared to tumors of the vehicle control group) ([2]; day 2): 14% | average tumor volume (±standard error) ([2]; day 6): 331 (±32) mm^3 | tumor growth inhibition rate (TGI, as compared to tumors of the vehicle control group) ([2]; day 6): 23% | average tumor volume (±standard error) ([2]; day 9): 632 (±61) mm^3 | tumor growth inhibition rate (TGI, as compared to tumors of the vehicle control group) ([2]; day 9): −12% | average tumor volume (±standard error) ([2]; day 12): 805 (±104) mm^3 | tumor growth inhibition rate (TGI, as compared to tumors of the vehicle control group) ([2]; day 12): 9% | average tumor volume (±standard error) ([2]; day 15): 1408 (±157) mm^3 | tumor growth inhibition rate (TGI, as compared to tumors of the vehicle control group) ([2]; day 15): 8% | average tumor volume (±standard error) ([2]; day 19): 2553 (±272) mm^3 | tumor growth inhibition rate (TGI, as compared to tumors of the vehicle control group) ([2]; day 19): 10% | average tumor volume (±standard error) ([3]; day 0): 0 (±0) mm^3 | average tumor volume (±standard error) ([3]; day 4): 71 (±16) mm^3 | tumor growth inhibition rate (TGI) ([3]; day 4): 8% | average tumor volume (±standard error) ([3]; day 7): 247 (±34) mm^3 | tumor growth inhibition rate (TGI) ([3]; day 7): 30% | average tumor volume (±standard error) ([3]; day 10): 874 (±108) mm^3 | tumor growth inhibition rate (TGI) ([3]; day 10): 7% | average tumor volume (±standard error) ([3]; day 12): 1851 (±226) mm^3 | tumor growth inhibition rate (TGI) ([3]; day 12): −0.7% | average tumor volume (±standard error) ([3]; day 14): 3279 (±321) mm^3 | tumor growth inhibition rate (TGI) ([3]; day 14): −0.2% | average body weight (±standard error) ([4]; day 0): 15 (±0.4) g | average body weight (±standard error) ([4]; day 4): 16 (±0.4) g | average body weight (±standard error) ([4]; day 7): 16 (±0.4) g | average body weight (±standard error) ([4]; day 10): 17 (±0.5) g | average body weight (±standard error) ([4]; day 12): 18 (±0.4) g | average body weight (±standard error) ([4]; day 14): 19 (±0.5) g

C=CC(=O)N1CCC[C@@H](n2nc(-c3ccc(Oc4ccccc4)cc3)c3c(N)ncnc32)C1 [ibrutinib, 1-[(3R)-3-[4-Amino-3-(4-phenoxyphenyl)-1H-pyrazolo[3,4-d]pyrimidin-1-yl]piperidin-1-yl]prop-2-en-1-one]
sensitivity of B-cell lymphoma A20 to the Btk inhibitor (B-cell lymphoma A20): would not be sensitive
